Target: T1, hFAAH (Homo sapiens, UniProt O00519)
T1 construct: expressed in transfected cells; host or cells: HEK293-TRex (Invitrogen) stably transfected with hFAAH in the pcDNA5-Tet-off vector, or T84 human colon epithelial cells (endogenous hFAAH); used as a microsomal preparation
T1 sequence (O00519 1-579): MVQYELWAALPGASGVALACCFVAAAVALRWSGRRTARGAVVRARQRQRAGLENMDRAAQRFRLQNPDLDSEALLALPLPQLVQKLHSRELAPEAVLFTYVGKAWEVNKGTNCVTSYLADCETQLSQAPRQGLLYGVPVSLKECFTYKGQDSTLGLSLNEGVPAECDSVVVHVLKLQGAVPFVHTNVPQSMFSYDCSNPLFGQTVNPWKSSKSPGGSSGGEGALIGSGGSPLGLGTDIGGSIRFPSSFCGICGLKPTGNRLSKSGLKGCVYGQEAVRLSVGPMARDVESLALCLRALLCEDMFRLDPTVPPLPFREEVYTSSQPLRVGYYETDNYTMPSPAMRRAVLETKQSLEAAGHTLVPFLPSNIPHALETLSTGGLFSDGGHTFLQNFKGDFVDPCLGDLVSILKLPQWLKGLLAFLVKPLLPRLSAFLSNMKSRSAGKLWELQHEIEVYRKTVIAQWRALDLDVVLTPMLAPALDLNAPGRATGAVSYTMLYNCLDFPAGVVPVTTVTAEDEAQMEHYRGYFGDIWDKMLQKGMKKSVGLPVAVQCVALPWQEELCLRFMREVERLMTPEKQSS
Assay: Fluorimetric assay with hFAAH microsomes (enzymatic, fluorescence based)
Assay type: biochemical
Details: compound at 1 uM, AA-AMC substrate
Description: Human cell line T84 (human colon epithelial cells), which expresses endogenous hFAAH, or HEK293-TRex cells (Invitrogen) stably transfected with hFAAH in the pcDNA5-Tet-off vector are cultured in medium containing DMEM, 10% FBS penicillin/streptomycin, glutamax, 200 μg/ml hygromycin and 0.5 μg/ml blasticidin. Cell collection is done 24 h after induction with doxycycline by first washing the cells with cold PBS and then incubating them with Versene before centrifugation. Cell pellets are then stored at −80° C. until needed. For homogenization, the cell pellets are thawed on ice […] and resuspended in homogenization buffer (50 mM HEPES (pH 7.4), 1 mM EDTA, 1 μM Pepstatin A, 100 μM Leupeptin, 0.1 mg/mL aprotinin). Cell suspensions are then homogenized on ice using the Polytron 1200 C at setting 6 for three 30-second intervals with 30-second rests. The suspension is centrifuged at 1000 g for 10 minutes at 4° C. and the supernatant is collected and further centrifuged at 24000 rpm for 30 minutes at 4° C. using an ultracentrifuge. Pellets are resuspended by adding in cold microsomal buffer (50 mM HEPES (pH 7.4) and 1 mM EDTA) and sheared through a 23-gauge needle five times, keeping the suspension on ice. Protein concentrations are determined using the BCA assay and aliquoted preparations are stored at −80° C. until needed.
Compound potency against hFAAH is determined using an enzymatic assay with a fluorescence readout. Briefly, experiments were carried out in a 96-well plate format (Corning Costar, # 3370) with a total well volume of 160 μL with components added in the following order: assay buffer (50 mM HEPES (pH 7.4), 1 mM EDTA, 1.4 mg/mL BSA), compound solutions (7 different concentrations per compound in duplicate), microsomal enzyme preparation (10 μg per well) and substrate [AA-AMC (arachadonyl 7-amino 4-methyl coumarin amide), 2 μM]. After a brief shaking, a kinetic read of the plate is obtained using a Tecan Safire II in kinetic mode for 275 cycles with excitation and emission wavelengths of 355 and 460 nm, respectively. Raw data is then processed and analyzed using Assay Explorer and GraphPad Prism.
The following compounds have been or can be prepared according to the methods of the invention. An enzymatic (fluorescence based) assay is performed as described above. In Table 1, activity of each compound is expressed as follows: • ++++ % Inhibition >75% • +++ % Inhibition >50% • ++ % Inhibition >25% • + % Inhibition <25%

Row | Structure (SMILES) | inhibition at 1 µM [%]
1 | CC(C1CCC1)N1Cc2ncnc(Nc3cnc4ccccc4c3)c2C1 (stereo not shown) [Compound 36, [6-(1-Cyclobutyl-ethyl)-6,7-dihydro-5H-pyrrolo[3,4-d]pyrimidin-4-yl]-quinolin-3-yl-amine] | > 25
2 | CC(C1CCCC1)N1Cc2ncnc(Nc3cnc4ccccc4c3)c2C1 (stereo not shown) [Compound 37, [6-(1-Cyclopentyl-ethyl)-6,7-dihydro-5H-pyrrolo[3,4-d]pyrimidin-4-yl]-quinolin-3-yl-amine] | > 50
3 | CC(C1CCCCC1)N1Cc2ncnc(Nc3cnc4ccccc4c3)c2C1 (stereo not shown) [Compound 38, [6-(1-Cyclohexyl-ethyl)-6,7-dihydro-5H-pyrrolo[3,4-d]pyrimidin-4-yl]-quinolin-3-yl-amine] | > 75
4 | CC(CC(C)(C)C)N1Cc2ncnc(Nc3cnc4ccccc4c3)c2C1 (stereo not shown) [Compound 39, Quinolin-3-yl-[6-(1,3,3-trimethyl-butyl)-6,7-dihydro-5H-pyrrolo[3,4-d]pyrimidin-4-yl]-amine] | < 25
5 | c1ccc2ncc(Nc3ncnc4c3CN(C3CCCCCC3)C4)cc2c1 [Compound 40, (6-Cycloheptyl-6,7-dihydro-5H-pyrrolo[3,4-d]pyrimidin-4-yl)-quinolin-3-yl-amine] | > 25
6 | c1ccc2ncc(Nc3ncnc4c3CN(C3CCCC3)C4)cc2c1 [Compound 41, (6-Cyclopentyl-6,7-dihydro-5H-pyrrolo[3,4-d]pyrimidin-4-yl)-quinolin-3-yl-amine] | > 50
7 | c1ccc2ncc(Nc3ncnc4c3CN(C3CCC3)C4)cc2c1 [Compound 43, (6-Cyclobutyl-6,7-dihydro-5H-pyrrolo[3,4-d]pyrimidin-4-yl)-quinolin-3-yl-amine] | < 25
8 | c1ccc2ncc(Nc3ncnc4c3CN(C3COC3)C4)cc2c1 [Compound 44, (6-Oxetan-3-yl-6,7-dihydro-5H-pyrrolo[3,4-d]pyrimidin-4-yl)-quinolin-3-yl-amine] | < 25
9 | CC(C)(C)OC(=O)N1Cc2ncnc(Nc3cnc4ccccc4c3)c2C1 [Compound 45, 4-(Quinolin-3-ylamino)-5,7-dihydro-pyrrolo[3,4-d]pyrimidine-6-carboxylic acid tert-butyl ester] | > 50
10 | O=C(NCC1CCCCC1)N1Cc2ncnc(Nc3cnc4ccccc4c3)c2C1 [Compound 46, 4-(Quinolin-3-ylamino)-5,7-dihydro-pyrrolo[3,4-d]pyrimidine-6-carboxylic acid cyclohexylmethyl-amide] | < 25
11 | O=C(NC1CCCCC1)N1Cc2ncnc(Nc3cnc4ccccc4c3)c2C1 [Compound 47, 4-(Quinolin-3-ylamino)-5,7-dihydro-pyrrolo[3,4-d]pyrimidine-6-carboxylic acid cyclohexylamide] | < 25
12 | O=C(CN1CCCCCC1)N1Cc2ncnc(Nc3cnc4ccccc4c3)c2C1 [Compound 52, 2-Azepan-1-yl-1-[4-(quinolin-3-ylamino)-5,7-dihydro-pyrrolo[3,4-d]pyrimidin-6-yl]-ethanone] | < 25
13 | O=C(CN1CCCCC1)N1Cc2ncnc(Nc3cnc4ccccc4c3)c2C1 [Compound 53, 2-Piperidin-1-yl-1-[4-(quinolin-3-ylamino)-5,7-dihydro-pyrrolo[3,4-d]pyrimidin-6-yl]-ethanone] | < 25
14 | O=C(CN1CCCC1)N1Cc2ncnc(Nc3cnc4ccccc4c3)c2C1 [Compound 54, 2-Pyrrolidin-1-yl-1-[4-(quinolin-3-ylamino)-5,7-dihydro-pyrrolo[3,4-d]pyrimidin-6-yl]-ethanone] | < 25

Further lines, results first:

Row | inhibition at 1 µM [%] | Structure (SMILES)
15 | < 25 | CC(C)N1Cc2ncnc(Nc3cnc4ccccc4c3)c2C1 [Compound 34, (6-Isopropyl-6,7-dihydro-5H-pyrrolo[3,4-d]pyrimidin-4-yl)-quinolin-3-yl-amine]
16 | < 25 | CCC(C)N1Cc2ncnc(Nc3cnc4ccccc4c3)c2C1 (stereo not shown) [Compound 35, (6-sec-Butyl-6,7-dihydro-5H-pyrrolo[3,4-d]pyrimidin-4-yl)-quinolin-3-yl-amine]
17 | > 25 | CCCC(C)N1Cc2ncnc(Nc3cnc4ccccc4c3)c2C1 (stereo not shown) [Compound 42, [6-(1-Methyl-butyl)-6,7-dihydro-5H-pyrrolo[3,4-d]pyrimidin-4-yl]-quinolin-3-yl-amine]
18 | < 25 | Cc1nc(C)c(CNC(=O)N2Cc3ncnc(Nc4cnc5ccccc5c4)c3C2)s1 [Compound 48, 4-(Quinolin-3-ylamino)-5,7-dihydro-pyrrolo[3,4-d]pyrimidine-6-carboxylic acid (2,4-dimethyl-thiazol-5-ylmethyl)-amide]
19 | > 50 | Cc1nc(C)c(C(=O)N2Cc3ncnc(Nc4cnc5ccccc5c4)c3C2)s1 [Compound 49, (2,4-Dimethyl-thiazol-5-yl)-[4-(quinolin-3-ylamino)-5,7-dihydro-pyrrolo[3,4-d]pyrimidin-6-yl]-methanone]
20 | < 25 | Cc1nc(C)c(CC(=O)N2Cc3ncnc(Nc4cnc5ccccc5c4)c3C2)s1 [Compound 50, 2-(2,4-Dimethyl-thiazol-5-yl)-1-[4-(quinolin-3-ylamino)-5,7-dihydro-pyrrolo[3,4-d]pyrimidin-6-yl]-ethanone]
21 | < 25 | Cc1nc(C)c(NC(=O)N2Cc3ncnc(Nc4cnc5ccccc5c4)c3C2)s1 [Compound 51, 4-(Quinolin-3-ylamino)-5,7-dihydro-pyrrolo[3,4-d]pyrimidine-6-carboxylic acid (2,4-dimethyl-thiazol-5-yl)-amide]
22 | > 25 | O=S(=O)(c1ccc(-c2cnco2)s1)N1Cc2ncnc(Nc3cnc4ccccc4c3)c2C1 [Compound 55, [6-(5-Oxazol-5-yl-thiophene-2-sulfonyl)-6,7-dihydro-5H-pyrrolo[3,4-d]pyrimidin-4-yl]-quinolin-3-yl-amine]
23 | > 25 | Cc1ccsc1S(=O)(=O)N1Cc2ncnc(Nc3cnc4ccccc4c3)c2C1 [Compound 56, [6-(3-Methyl-thiophene-2-sulfonyl)-6,7-dihydro-5H-pyrrolo[3,4-d]pyrimidin-4-yl]-quinolin-3-yl-amine]
24 | > 25 | O=S(=O)(C1CCCC1)N1Cc2ncnc(Nc3cnc4ccccc4c3)c2C1 [Compound 57, (6-Cyclopentanesulfonyl-6,7-dihydro-5H-pyrrolo[3,4-d]pyrimidin-4-yl)-quinolin-3-yl-amine]
25 | > 25 | O=S(=O)(c1ccc(F)cc1F)N1Cc2ncnc(Nc3cnc4ccccc4c3)c2C1 [Compound 58, [6-(2,4-Difluoro-benzenesulfonyl)-6,7-dihydro-5H-pyrrolo[3,4-d]pyrimidin-4-yl]-quinolin-3-yl-amine]
26 | > 75 | Cc1ccccc1S(=O)(=O)N1Cc2ncnc(Nc3cnc4ccccc4c3)c2C1 [Compound 59, Quinolin-3-yl-[6-(toluene-2-sulfonyl)-6,7-dihydro-5H-pyrrolo[3,4-d]pyrimidin-4-yl]-amine]
27 | > 50 | Cn1nccc1S(=O)(=O)N1Cc2ncnc(Nc3cnc4ccccc4c3)c2C1 [Compound 60, [6-(2-Methyl-2H-pyrazole-3-sulfonyl)-6,7-dihydro-5H-pyrrolo[3,4-d]pyrimidin-4-yl]-quinolin-3-yl-amine]
28 | > 50 | Cc1nc(C)c(S(=O)(=O)N2Cc3ncnc(Nc4cnc5ccccc5c4)c3C2)s1 [Compound 61, [6-(2,4-Dimethyl-thiazole-5-sulfonyl)-6,7-dihydro-5H-pyrrolo[3,4-d]pyrimidin-4-yl]-quinolin-3-yl-amine]
